Assays:
E. coli [1] = assay: microbe, parasite or virus in culture; format: cell-based, E. coli (ATCC 43894); conditions: Escherichia coli, 24 h, read-out: MIC E. coli
Text: (§1) • Menthol, Guangdong Huaqingyuan Biotechnology Co., Ltd. • Thymol, Guangdong Huaqingyuan Biotechnology Co., Ltd. • Bromoisobutyryl bromide (BiBB), Aldrich • CuBr, Aldrich • N,N,N′,N″,N″-pentamethyldiethylenetriamine (PMDETA), Aldrich • 2-(N,N-dimethylamino)ethyl methacrylate (DMAEMA), Aldrich • Gram-positive 2 bacteria (S. aureus, ATCC 25923), China Center of Industrial Culture, commercially available from Guangdong Huankai Microbial Sci.&Tech. Co., Ltd., Guangdong, China • methicillin-resistant Staphylococcus aureus (ATCC 43300), China Center of Industrial Culture, commercially available from Guangdong Huankai Microbial Sci.&Tech. Co., Ltd., Guangdong, China • Gram-negative bacteria (E. coli, ATCC 43894), China Center of Industrial Culture, commercially available from Guangdong Huankai Microbial Sci.&Tech. Co., Ltd., Guangdong, China.
(§2) MIC (minimum inhibitory concentration) was used as an effective qualitative method of antibacterial ability assessment. MIC of antibacterial polymers were determined against S. aureus and E. coli by a serial dilution method. Bacteria LB agar plates were prepared from glycerol stock. Bacteria were inoculated with LB broth in an inoculation shaker at 200 rpm and 37° C., overnight.

S. aureus [2] = assay: MIC determination by serial dilution in LB broth; format: cell-based, S. aureus (ATCC 25923); conditions: Staphylococcus aureus, Table 5, 24 h, 37° C.
Text: as §1, §2

MRSA [3] = assay: MIC determination by serial dilution in LB broth; format: cell-based, methicillin-resistant Staphylococcus aureus (ATCC 43300); conditions: Staphylococcus aureus, read-out: MIC MRSA
Text: as §1
as §2, with “overnight. […] MIC was determined with no visible growth at 600 nm by spectrophotometer. […]” for “overnight.”

E. coli [4] = assay: MBC determination; format: cell-based, E. coli (ATCC 43894); conditions: Escherichia coli, read-out: MBC E. coli
Text: as §1
(§3) The MBC was defined as the lowest concentration of an antibacterial agent that kills bacteria in the planktonic culture. MBC of antibacterial polymers and control were determined against S. aureus and E. coli by the reported method in publication “Antibacterial and Bacterially Antiadhesive Cotton Fabrics Coated by Cationic Fluorinated Polymers. ACS Appl Mater Interfaces 2018, 10 (7), 6124-6136.”

S. aureus [5] = assay: MBC determination; format: cell-based, S. aureus (ATCC 25923); conditions: Staphylococcus aureus; Table 5
Text: as §1, §3

MRSA [6] = assay: MBC determination; format: cell-based, methicillin-resistant Staphylococcus aureus (ATCC 43300); conditions: Staphylococcus aureus, read-out: MBC MRSA
Text: as §1, §3

Cc1ccc(C(C)C)c(O)c1 [Thymol]
250 µg/mL: MIC (E. coli [1]) | MIC (S. aureus [2]) | MIC (MRSA [3]) | MBC (E. coli [4]) | MBC (S. aureus [5]) | MBC (MRSA [6])
